In patent publication US12589143B2, “Human anti-PD-L1 peptide vaccines and methods of their use” (priority 2019, dated 2026):
Where no end group is shown, it is not given here.

Test system: D2F2 WT tumor cells
Assay: D2F2 WT tumor challenge in Balb/c mice
Type: in vivo
Protocol: Balb/c mice 6-8 weeks old, were immunized with G1 and G2 mice were treated with anti-PD-1 mAb (29F.1A12) (G1) or anti-PD-L1 mAb (10F.9G2) (G2 or with MVF-PD-L1 vaccine constructs [PD-L1(92-110)(G3) PD-L1(130-147)(G4)] prior to tumor challenge. Similarly, G10, G11 and G12 are control groups and were not treated prior to tumor cell challenge. G13, G14 and G15 mice were immunized with 100 ug MVF-HER-2(266-296)+100 ug MVF-HER-2(597-626)+ISA720 per mouse for G13, 100 ug MVF-PD-1 (92-110)+100 ug MVF-HER-2(266-296)+100 ug MVF-HER-2(597-626)+ISA720 per mouse for G14 and 100 ug MVF-PD-L1 (130-147)+100 ug MVF-HER-2(266-296)+100 ug MVF-HER-2(597-626)+ISA720 per mouse for G15. The mice were immunized up to 4 times before tumor challenge. […] All the mice had been monitored at least twice per week, and the tumors were measured with calipers as data indicated.
The tumor volumes were measured by calipers and calculated by formula: (length×width2)/2. […] All the peptides immunized groups of mice are shown with less tumor burden than PBS group and mAbs treated groups as well.
G0, G1 and G2 are control groups, mice in these groups were not treated before tumor cells challenge. Following challenge with D2F2 WT tumor cells, G0 mice were treated with PBS (i.p.) twice per week start from day 2 post challenge served as negative control, G1 and G2 mice were treated with anti-PD-1 mAb (29F.1A12) or anti-PD-L1 mAb (10F.9G2), respectively. Treatment for G1 and G2 mouse groups was also started from day 2 post tumor challenge, with 100 ug administered/mouse twice a week. G1 and G2 served as positive control. […] All the mice had been monitored at least twice per week, and the tumors were measured with calipers as data indicated (FIG. 26).
Mice were immunized with designed peptides vaccines as descripted in FIG. 26, which indicated as 1Y, 2Y, 3Y and 4Y here and with 3 weeks apart. […] And the mice were monitor at least twice per week, and the tumors were measured as shown in the data figures.
The tumor volumes were measured by calipers and calculated by formula: (length×width2)/2. […]

Sequence: KLLSLIKGVIVHRLEGVEGPSLVTSEHELTCQAEGYPKAE (KLLSLIKGVIVHRLEGVEGPSLVTSEHELTCQAEGYPKAE-NH2) [PD-L1(130)]
- mice survival (after day 45 of tumor challenge): about 60%
- tumor volume (day 21 and day 28): smaller tumor volume than PBS negative control group and both of mAbs positive control groups
